Results reported in patent US5561154A, “Treatment of acute urinary retention” (Institut de Recherches Chimiques et Bioloques Appliquees …, priority 1995, dated 1996).
Where a name gives a salt, the structure may show the parent alone. Read-outs that look alike come from different tables or passages of the source.

Tests used:
[1] = cited from earlier work
[2] = Stability in aqueous solution; type: physicochemical
Text: In the parent application it was pointed out that DAM, the active ingredient, is effectively soluble and stable in water in the form of its hydrochloride salt. Deacetyl moxisylyte hydrochloride (DAM.HCl) is soluble up to a concentration of 10% p/v, which is the upper therapeutically acceptable concentration, in pure (i.e. distilled, bidistilled or preferably deionized) water and in aqueous solutions buffered at pH 5-7. Water solutions containing 1% p/v of deacetyl moxisylyte hydrochloride without any antioxidant and kept at pH 5, 6 and 7, are stable for 15 days at 25° C. and for 90 minutes at 121° C. […] More details regarding the solubility and stability in water of DAM.HCl are given in the parent application.

[3] = Hepatotoxicity on administration (general statement); type: in vivo; conditions: administered iv at 50 mg or less doses
[4] = molecular target: T1, isolated rabbit urethra (contraction induced by noradrenaline) (Oryctolagus cuniculus, UniProt O02824); experiment: Isolated rabbit urethra: antagonism of noradrenaline-induced contraction; type: cell-based; conditions: against noradrenaline, isolated male rabbit urethra, 5 experiments; read-out: pA2 (converted)
T1 construct: from tissue; host or cells: isolated urethra of male rabbits
T1 sequence (O02824 1-466): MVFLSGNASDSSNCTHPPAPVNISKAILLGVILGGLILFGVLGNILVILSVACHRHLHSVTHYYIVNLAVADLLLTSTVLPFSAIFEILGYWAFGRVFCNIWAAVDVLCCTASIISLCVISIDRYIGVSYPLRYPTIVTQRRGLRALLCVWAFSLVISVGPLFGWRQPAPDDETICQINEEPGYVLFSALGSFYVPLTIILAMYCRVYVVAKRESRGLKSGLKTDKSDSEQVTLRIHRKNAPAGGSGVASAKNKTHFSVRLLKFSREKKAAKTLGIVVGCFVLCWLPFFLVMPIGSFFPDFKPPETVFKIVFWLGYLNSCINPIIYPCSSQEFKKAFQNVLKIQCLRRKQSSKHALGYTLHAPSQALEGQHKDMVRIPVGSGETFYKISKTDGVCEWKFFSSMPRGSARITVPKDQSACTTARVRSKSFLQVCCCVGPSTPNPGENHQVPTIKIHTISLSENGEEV
Procedure: After slaughtering of male rabbits, each urethra was taken out then placed into a receptacle containing a physiological saline aqueous solution, and kept at 37° C. with an oxygen/carbon oxide mixture (95/5 p/p). One end of the urethra was fixed to a pressure captor linked to a recording device for measuring the organ contractions.
Contracturing effects of noradrenaline were determined by succesive infusions of increasing […] up to the contraction corresponding to the maximal amplitude. The measures were carded out with and without DAM.HCl.
The activity of DAM.HCl was measured as a pA2 value, pA2 being here the cologarithm of the antagonist molar concentration in the presence of which the noradrenaline concentration needs to be multiplied by two to obtain the same effect in the absence of antagonist.

α1 -adrenoreceptors = experiment: Radioligand binding, (125I)-HEAT, rabbit urethral membranes
Procedure: (§1) α-adrenoreceptors can be by use of a ^3 H- or 125 I- labelled specific antagonist (or agonist) on membrane preparations of the concerned organ, here rabbit urethra.
(§2) A male rabbit urethral grinding was filtered then centrifugated. The filtrate thus obtained is a membrane preparation which was incubated with a radioactive ligand, namely (^125 I)-HEAT [wherein HEAT is 2-[2-(3-iodio-4-hydroxyphenyl)ethyl-aminoethyl]-tetralone for the α1 -adrenoreceptors, and (^3 H)-rauwolscine for the α2 -adrenoreceptors.
(§3) The incubations were carded out in the absence or in the presence of an increasing concentration of the product to be tested. The affinity was measured by means of the inhibition coefficient (Ki).

α2 -adrenoreceptors = experiment: Radioligand binding, (3H)-rauwolscine, rabbit urethral membranes; conditions: male rabbit urethral membrane preparation
Procedure: as §1, §2, §3

[5] = system: urethral and arterial pressures induced by noradrenaline; experiment: Anesthetized rabbits: noradrenaline-induced increases in urethral and arterial pressure; type: in vivo, rabbit; conditions: Oryctolagus cuniculus, iv, noradrenaline-induced increase, i.v.
Procedure: Male White New-Zealand rabbits (weighing 3 kg each) were anesthetized with ethyl-urethane. Arterial pressure (AP) was measured with a pressure captor linked to a catheter located in the carotid; urethral pressure (UP) was determined with a pressure captor linked to a catheter introduced into the urethra and located at the level of the vesical base. The femoral vein was also catheterized for administering the products to be tested.
The increases in the urethral and arterial pressures, which were induced by noradrenaline, were determined after i.v. injections of increasing doses for periods of 3 minutes each, from 15 minutes before the injection of the α-blocking product to be tested to 15 minutes after said injection.
The results thus obtained are expressed hereinafter an inhibiting dose 50% (ID-50) which is defined as the dose of a-blocking product in the presence of which, the effect of the largest dose of noradrenaline is divided by a factor 2.

[6] = system: increase in UP induced by electric stimulation of the hypogastric nerve; experiment: Anesthetized dogs: hypogastric nerve stimulation, urethral pressure, AP and HR; type: in vivo, dog; conditions: anesthetized Beagle dogs
Procedure: Adult male Beagle dogs were anesthetized by i.v. injection of sodium barbital (30 mg/kg).
The cannulation of each carotid and urethra allowed measurement of AP and UP. By derivation of the AP signal, the heart rate (HR) was recorded.
The increase in UP was induced by electric stimulation of the hypogastric nerve distal roots (10 ms, 30 Hz, 5s, 6-10 V). That increase in UP is determined before and 15 minutes after the injection of the α-blocking agent to be tested.
The results were expressed by calculating a ID-50 defined as the dose of α-blocking agent which inhibits 50% of the effects of the hypogastric nerve stimulation on UP. The effects of said ID-50 were determined on AP and HR in order to obtain a variation percentage with respect to the initial values.

liver = experiment: Absence of hepatotoxicity, 2-month daily i.v. injection in rats; type: in vivo, rat; conditions: male Wistar rats, 1.5 mg/kg daily i.v. for 2 months
Procedure: Adult male Wistar rats were daily injected with 1.5 mg/kg of DAM.HCl in saline solution (i.e. the solution of Ex 1) per i.v. route for 2 months, then slaughtered.

[7] = pure water and aqueous solutions buffered at pH 5-7; cited from earlier work

SMILES: CC(=O)Oc1cc(C(C)C)c(OCCN(C)C)cc1C [moxisylyte, 4-[2-(dimethylamino)ethoxy]-2-methyl-5-(1methylethyl)phenol acetate, reference compound]
- stability of solution stabilized with dimethyl-beta-cyclodextrin at 45° C. ([1]; pH 5 solution, 1 mg/ml, dimethyl-beta-cyclodextrin as stabilizing agent, 45° C.): 3 months

SMILES: Cc1cc(OCCN(C)C)c(C(C)C)cc1O [DAM, 4-[2-(dimethylamino)ethoxy]-2-methyl-5-(1-methylethyl)phenol]
- stability in aqueous solution ([2]; aqueous solution): stable
- degradation on sterilization of aqueous solution ([2]; classical sterilization, e.g. autoclave 15 minutes at 121° C. or sterilizing filtration): without degradation
- hepatotoxicity i.v. [3]: substantially devoid of hepatotoxicity

SMILES: Cc1cc(OCCN(C)C)c(C(C)C)cc1O [DAM.HCl, Deacetyl moxisylyte hydrochloride]
- Kb [4]: 0.00316 µM
- times more active on α1 -adrenoreceptors than on α2 -adrenoreceptors (α1 -adrenoreceptors; from Ki values of table II): six
- Ki (α1 -adrenoreceptors; male rabbit urethral membrane preparation, (125I)-HEAT): 0.109 ± 0.02 µM
- Ki (α2 -adrenoreceptors): 0.637 ± 0.094 µM
- ED50 ([5]; n = 5, read-out: ID-50 i.v., AP (arterial pressure)): 3.5 ± 0.65 mg/kg
- ED50 ([5]; n = 5, read-out: ID-50 i.v., UP (urethral pressure)): 0.4 ± 0.03 mg/kg
- Effect of ID-50 on AP (variation percentage with respect to the initial values) ([6]; at the ID-50 dose): -6%
- Effect of ID-50 on HR (variation percentage with respect to the initial values) ([6]; at the ID-50 dose): -5%
- ID-50, effect on UP ([6]; hypogastric nerve stimulation, 15 minutes after injection, in mg/kg): 0.05 ± 0.01
- hepatotoxicity (study of organs, analysis of the liver) (liver): no sign of hepatotoxicity
- solubility (soluble up to a concentration) [7]: > 10 % p/v
- stability of water solution at 25° C. ([1]; 1% p/v, no antioxidant, pH 5, 6 and 7, 25° C.): 15 days
- stability of water solution at 121° C. ([1]; 1% p/v, no antioxidant, pH 5, 6 and 7, 121° C.): 90 min
- stability of water solution with Na2 SO3 at 95° C. ([1]; 1% p/v, pH 5, 6 and 7, sodium sulfite 0.1 p/v, 95° C., no coloration): 15 days
